Broadly, the NOAEL is the highest tested level that showed no adverse finding.

In one series the test system is Anas platyrhynchos. To be noted: for LD50: oral, mortality.
A further series has as its system Apis mellifera. As to conditions: acute; duration: 48 hours; oral; unspecified; mortality.
Another series has as its system Colinus virginianus. To be noted: for LD50: acute, oral, mortality.
For another series, the system named is Cyprinus carpio. As to conditions: acute; duration: 96 hours; mortality.
The next series has as its system Daphnia magna. To be noted: chronic/long-term; duration: 21 days; reproduction.
The test system of the next series is Oncorhynchus mykiss. To be noted: chronic/long-term; duration: 21 days; behavior.
The subject of the next series is Oryctolagus sp. To be noted: reproduction developmental; reproduction.
The next series deals with Tagia sp. As to conditions: acute; duration: 14 days; mortality.
A further series deals with Typhlodromus pyri. Put plainly: LR50; higher = less toxic. To be noted: not reported; mortality.

Regarding `COc1c(Cl)ccc(Cl)c1C(=O)O` [Dicamba], the LD50 in the series with Anas platyrhynchos (acute, unspecified) is 1370 mg/kg-day; with Anas platyrhynchos (short-term, feed), over 1570 mg/kg-day; in the series on Apis mellifera, over 100 µg/piece; in the series on Colinus virginianus (diet), over 995 mg/kg-day; in the series on Colinus virginianus, 216 mg/kg-day; with Rattus norvegicus (acute, oral, F, mortality), 1580 mg/kg-day. In addition, the NOEL with Anas platyrhynchos (reproductive) stood at 89 mg/kg-day; in the series with Colinus virginianus (reproduction developmental), 170 mg/kg-day. The LC50 is over 100 µg/mL in the series with Cyprinus carpio and over 1000 mg/kg in the series on Tagia sp.. Moreover, the NOEC in the series with Daphnia magna came out at 97 mg/L; in the series with Oncorhynchus mykiss, 180 mg/L. Also, the NOAEL turned out to be 30 mg/kg-day with Oryctolagus sp. and 35 mg/kg-day in the series on Rattus norvegicus (reproduction developmental, body weight). In the series with Typhlodromus pyri, this compound came in with an LR50 of 233 g/ha.

Values taken from EPA's ToxValDB 9.5 (doi:10.2903/j.efsa.2011.1965).
